The nature of data set [1]: Toxicity: median lethal dose (LD50). To be noted: in vivo, mouse.
Another data set addresses T1, C1s (Homo sapiens, UniProt P09871).
T1 sequence (P09871 438-688 limits assumed): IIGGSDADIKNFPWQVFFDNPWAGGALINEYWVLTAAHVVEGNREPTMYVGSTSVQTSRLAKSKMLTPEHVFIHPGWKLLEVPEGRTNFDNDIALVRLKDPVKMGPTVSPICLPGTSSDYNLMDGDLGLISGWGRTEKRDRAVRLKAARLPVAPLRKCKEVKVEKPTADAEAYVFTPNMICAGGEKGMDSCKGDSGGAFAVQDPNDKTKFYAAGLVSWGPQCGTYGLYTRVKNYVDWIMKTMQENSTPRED
T1 sequence (P09871 16-437 limits assumed): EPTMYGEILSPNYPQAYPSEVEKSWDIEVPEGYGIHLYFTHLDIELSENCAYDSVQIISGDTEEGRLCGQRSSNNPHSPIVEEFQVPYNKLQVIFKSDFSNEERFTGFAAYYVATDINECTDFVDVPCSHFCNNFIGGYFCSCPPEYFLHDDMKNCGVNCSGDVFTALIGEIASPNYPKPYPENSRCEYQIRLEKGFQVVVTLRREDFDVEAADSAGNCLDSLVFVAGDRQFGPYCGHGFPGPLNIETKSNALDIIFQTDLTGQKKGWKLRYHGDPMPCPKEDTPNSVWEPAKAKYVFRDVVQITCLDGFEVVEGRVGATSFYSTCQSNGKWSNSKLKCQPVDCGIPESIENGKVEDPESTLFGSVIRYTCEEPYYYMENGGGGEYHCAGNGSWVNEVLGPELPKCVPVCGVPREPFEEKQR
Put plainly: anti-C1 esterase (C1s) activity (hydrolysis of ATEE). It counts as biochemical. The conditions noted are these: ATEE hydrolysis; read-out: ID50 C1s. The method, then: (§1) The anti-C1 esterase (C1r, C1s) activity was determined according to the method of Okamura et al. [K. Okamura, M. Muramatsu and B. Fujii, Biochem. Biophys. Acta, 295, 252-257 (1973)]. The inhibition of complement mediated hemolysis was determined according to the method of Baker et al. [B. R. Baker and E. H. Erickson, J. Med. Chem., 12, 408-414 (1969)]. The figures in Table 2 have the following meanings:
C1s: Molar concentration of the test compound which inhibits 50% of the ability of C1s to hydrolyse ATEE (acetyltyrosin ethyl ester) (ID50).

A further data set has as its target Thrombin (Homo sapiens, UniProt P00734). Put plainly: biochemical. The conditions noted are these: read-out: ID50 Thrombin.
The next data set deals with T2, C1r (Homo sapiens, UniProt P00736).
T2 sequence (P00736 464-705 limits assumed): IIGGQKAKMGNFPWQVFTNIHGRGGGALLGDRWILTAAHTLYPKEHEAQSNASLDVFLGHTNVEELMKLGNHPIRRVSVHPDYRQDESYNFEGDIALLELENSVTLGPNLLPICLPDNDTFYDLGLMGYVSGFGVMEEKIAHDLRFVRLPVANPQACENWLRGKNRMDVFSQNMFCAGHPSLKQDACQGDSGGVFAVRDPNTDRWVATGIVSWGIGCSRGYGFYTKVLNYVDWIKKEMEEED
T2 sequence (P00736 18-463 limits assumed): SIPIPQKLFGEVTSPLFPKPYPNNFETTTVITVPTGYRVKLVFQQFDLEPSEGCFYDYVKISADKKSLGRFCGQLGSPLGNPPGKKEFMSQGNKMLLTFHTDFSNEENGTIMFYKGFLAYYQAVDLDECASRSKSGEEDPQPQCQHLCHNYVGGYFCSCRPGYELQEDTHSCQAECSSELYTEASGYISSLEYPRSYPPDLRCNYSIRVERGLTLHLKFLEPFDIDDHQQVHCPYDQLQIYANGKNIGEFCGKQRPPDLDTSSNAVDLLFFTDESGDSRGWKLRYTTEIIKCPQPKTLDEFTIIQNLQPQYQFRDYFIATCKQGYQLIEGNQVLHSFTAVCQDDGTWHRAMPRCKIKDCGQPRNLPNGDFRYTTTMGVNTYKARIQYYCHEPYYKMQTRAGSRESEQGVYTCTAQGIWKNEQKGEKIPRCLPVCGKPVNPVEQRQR
Put plainly: anti-C1 esterase (C1r) activity (hydrolysis of AAME). It counts as biochemical. The conditions noted are these: AAME hydrolysis; read-out: ID50 C1r. The method, then:
as §1
C1r: Molar concentration of the test compound which inhibits 50% of the ability of C1r to hydrolyse AAME (acetylarginin methyl ester) (ID50).

A further data set has as its target T3, Trypsin (Bos taurus, UniProt P00760).
T3 sequence (P00760 24-246): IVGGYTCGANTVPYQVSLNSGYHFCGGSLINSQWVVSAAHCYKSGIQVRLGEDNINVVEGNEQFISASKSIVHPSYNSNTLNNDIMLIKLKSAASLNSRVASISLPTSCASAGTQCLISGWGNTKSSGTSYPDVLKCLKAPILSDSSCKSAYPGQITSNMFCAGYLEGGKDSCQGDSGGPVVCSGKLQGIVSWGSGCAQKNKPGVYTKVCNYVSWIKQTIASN
The data set can be described thus: anti-trypsin activity (hydrolysis of TAME). It counts as biochemical. The conditions noted are these: read-out: ID50 Trypsin. As for the experimental part: (§2) The anti-trypsin, anti-plasmin, anti-kallikrein and anti-thrombin activities were determined according to the method of Muramatsu et al. [M. Muramatsu, T. Onishi, S. Makino, Y. Hayashi and S. Fujii, J. of Biochem., 58, 214 (1965)]. […] The compound No. corresponds to the compound number shown in Examples.

Another data set concerns the target Plasmin (Homo sapiens, UniProt P00747). Put plainly: anti-plasmin activity (hydrolysis of TAME). The conditions noted are these: TAME hydrolysis; read-out: ID50 Plasmin. It counts as biochemical. The method, then:
as §2

The test system of the next data set is Kallikrein. The data set can be described thus: anti-kallikrein activity (hydrolysis of TAME). It counts as biochemical. The conditions noted are these: TAME hydrolysis; read-out: ID50 Kallikrein. The method, then: as §2
Data set [2] concerns complement mediated hemolysis. Put plainly: inhibition of complement mediated hemolysis. It counts as cell-based. The method, then:
The complement mediated hemolysis is widely used as a means to determine the titration of complement. The principle of this method is based on the fact that hemolysis is caused by the activation of complement, when the latter is added to a complex (immune complex) of erythrocytes and the antibody thereof. The degree of hemolysis varies in proportion to the amount of complement added. Therefore, when a known amount of complement admixed with a C1 esterase inhibitor is used, the hemolysis must be suppressed in proportion to the inhibitory activity.
as §1
Inhibition of complement mediated hemolysis (%): The inhibitory activity is shown in terms of percent inhibition of the compound at varied concentrations: […]

Another data set relates to Forssman shock. The data set can be described thus: Forssman shock. It counts as in vivo. To be noted: test compound 3 mg/kg before hemolysin i.v.; male Hartlay guinea pig; control death at 278, 318, 296 sec. An excerpt:
Quite different from other animals, guinea pig has on the surface of its organs a specific antigen called Forssman antigen which specifically reacts with the antibody of sheep erythrocyte. Forssman shock is based on the above principle and is a shock caused by the administration of antibody of sheep erythrocyte to a guinea pig. The Forssman shock was investigated in detail by many researches and it was definitely shown that this shock is a model case where the complement plays the principal part and that the shock is associated with a classical pathway in which the complement system is activated progressively starting from C1. Since the participation of complement in autoimmune diseases has been established, the Forssman shock can be said to be a useful means for testing a drug for autoimmune diseases. A drug effective for the treatment of Forssman shock is useful as a drug of autoimmune diseases.
The experiment was performed according to the method of I. G. Offerness et al. [Biochem. Pharmacol., 27 (14), 1873-1878 (1978)]. Male Hartlay guinea pig of about 300 g in body weight was used. Each guinea pig of the control group was administered intravenously with hemolysin (minimum dose to cause the shock) (commercial hemolysin, 5,000 U as assayed by the method of Ogata) and the time elapsed until death was observed. […]

Each structure is given as a SMILES string. pIC50: −log10 of the molar value. Like-named read-outs stand apart in the source and are kept apart here. Where only a bound is given, the exact number is not on record here.

The term LD50 denotes the dose at which mortality reaches 50%.

Plasmin, sequence (P00747 581-810 limits assumed, species assumed): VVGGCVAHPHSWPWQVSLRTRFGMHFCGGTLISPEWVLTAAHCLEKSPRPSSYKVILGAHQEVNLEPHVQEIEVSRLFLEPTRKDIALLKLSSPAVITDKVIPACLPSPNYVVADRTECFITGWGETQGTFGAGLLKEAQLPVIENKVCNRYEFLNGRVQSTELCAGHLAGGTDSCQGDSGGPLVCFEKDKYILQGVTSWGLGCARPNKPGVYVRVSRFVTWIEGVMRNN
Plasmin, sequence (P00747 97-580 limits assumed, species assumed): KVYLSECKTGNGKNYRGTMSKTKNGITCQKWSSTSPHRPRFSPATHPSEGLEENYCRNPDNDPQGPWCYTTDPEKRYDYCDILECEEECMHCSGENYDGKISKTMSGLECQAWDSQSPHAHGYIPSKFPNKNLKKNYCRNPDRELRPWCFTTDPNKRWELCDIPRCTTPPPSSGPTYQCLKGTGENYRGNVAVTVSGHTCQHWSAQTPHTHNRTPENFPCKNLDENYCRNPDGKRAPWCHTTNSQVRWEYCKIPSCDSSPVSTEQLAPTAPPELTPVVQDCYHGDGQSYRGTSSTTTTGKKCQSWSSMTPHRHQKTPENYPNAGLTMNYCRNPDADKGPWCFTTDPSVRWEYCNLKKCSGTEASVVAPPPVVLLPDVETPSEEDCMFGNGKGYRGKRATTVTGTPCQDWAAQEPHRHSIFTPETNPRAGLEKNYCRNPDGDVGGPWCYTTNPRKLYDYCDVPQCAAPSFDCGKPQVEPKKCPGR

With `COc1ccc(C(=O)Oc2ccc3cc(C(=N)N)ccc3c2)o1` [Compound No. 1, 6-amidino-2-naphthyl 5-methoxy-furan-2-carboxylate], the LD50 turned out to be 200 mg/kg in data set [1] (ip, I.P.) and 2500 mg/kg in data set [1] (po, P.O.). Moreover, the pIC50 at C1s is 6.70; on Thrombin (TAME hydrolysis) it was 6.70; on C1r, 7.22; on Trypsin, 8.00; at Plasmin, 6.40; in the data set on Kallikrein it was 6.52. For the same compound, the “Inhibition of complement mediated hemolysis” value (shortened to “Inhibition”) in data set [2] (1 × 10^-4) was 100%; in data set [2] (1 × 10^-5), 100%; in [2] (1 × 10^-6), 98%; in [2] (1 × 10^-7), 99%. In addition, the “time elapsed until death (survival) in Forssman shock” value in the data set with Forssman shock was “Survival”.

On to `CSCc1ccc(C(=O)Oc2ccc3cc(C(=N)N)ccc3c2)o1` [compound 11], for which the pIC50 on C1s was 6.05; at Thrombin (TAME hydrolysis), 6.52; on C1r, 6.70; on Trypsin it was 6.70; at Plasmin it was 6.30; with Kallikrein, 6.70. Moreover, the “Inhibition” value in data set [2] (1 × 10^-4) was found to be 100%; in data set [2] (1 × 10^-5), 100%; in [2] (1 × 10^-6), 99%; in [2] (1 × 10^-7) it was 88%.

For the compound `Cc1ccc(C(=O)Oc2ccc3cc(C(=N)N)ccc3c2)s1` [compound 23], the pIC50 at C1s was 6.40; at Thrombin it was 5.52; at C1r, 6.15; on Trypsin, > 8.00; on Plasmin, 6.52; in the data set with Kallikrein it was 5.70. Further, the “Inhibition” value is 100% in data set [2] (1 × 10^-4), 99% in data set [2] (1 × 10^-5), 95% in data set [2] (1 × 10^-6) and 91% in data set [2] (1 × 10^-7).

The values above are taken from patent US4634783A, “Novel amidine compound” (Torii & Co. Ltd., priority 1983, dated 1987).
